Laboratory results published in PMC6952396, “Structural basis for itraconazole-mediated NPC1 inhibition” (Nature Communications, 2020).

Experiments:
NPC1 = target: T1, NPC1 (Cricetulus griseus, UniProt Q9JLG3); settings: cited from earlier work; for inhibition of P-X cross-linking to NPC1: cultured cells
T1 construct: CHO-7 cells in the medium are deprived of cholesterol to induce the LDL receptors biosynthesis; endogenous in cells; host or cells: CHO-7 cells
T1 sequence (Q9JLG3 23-1277): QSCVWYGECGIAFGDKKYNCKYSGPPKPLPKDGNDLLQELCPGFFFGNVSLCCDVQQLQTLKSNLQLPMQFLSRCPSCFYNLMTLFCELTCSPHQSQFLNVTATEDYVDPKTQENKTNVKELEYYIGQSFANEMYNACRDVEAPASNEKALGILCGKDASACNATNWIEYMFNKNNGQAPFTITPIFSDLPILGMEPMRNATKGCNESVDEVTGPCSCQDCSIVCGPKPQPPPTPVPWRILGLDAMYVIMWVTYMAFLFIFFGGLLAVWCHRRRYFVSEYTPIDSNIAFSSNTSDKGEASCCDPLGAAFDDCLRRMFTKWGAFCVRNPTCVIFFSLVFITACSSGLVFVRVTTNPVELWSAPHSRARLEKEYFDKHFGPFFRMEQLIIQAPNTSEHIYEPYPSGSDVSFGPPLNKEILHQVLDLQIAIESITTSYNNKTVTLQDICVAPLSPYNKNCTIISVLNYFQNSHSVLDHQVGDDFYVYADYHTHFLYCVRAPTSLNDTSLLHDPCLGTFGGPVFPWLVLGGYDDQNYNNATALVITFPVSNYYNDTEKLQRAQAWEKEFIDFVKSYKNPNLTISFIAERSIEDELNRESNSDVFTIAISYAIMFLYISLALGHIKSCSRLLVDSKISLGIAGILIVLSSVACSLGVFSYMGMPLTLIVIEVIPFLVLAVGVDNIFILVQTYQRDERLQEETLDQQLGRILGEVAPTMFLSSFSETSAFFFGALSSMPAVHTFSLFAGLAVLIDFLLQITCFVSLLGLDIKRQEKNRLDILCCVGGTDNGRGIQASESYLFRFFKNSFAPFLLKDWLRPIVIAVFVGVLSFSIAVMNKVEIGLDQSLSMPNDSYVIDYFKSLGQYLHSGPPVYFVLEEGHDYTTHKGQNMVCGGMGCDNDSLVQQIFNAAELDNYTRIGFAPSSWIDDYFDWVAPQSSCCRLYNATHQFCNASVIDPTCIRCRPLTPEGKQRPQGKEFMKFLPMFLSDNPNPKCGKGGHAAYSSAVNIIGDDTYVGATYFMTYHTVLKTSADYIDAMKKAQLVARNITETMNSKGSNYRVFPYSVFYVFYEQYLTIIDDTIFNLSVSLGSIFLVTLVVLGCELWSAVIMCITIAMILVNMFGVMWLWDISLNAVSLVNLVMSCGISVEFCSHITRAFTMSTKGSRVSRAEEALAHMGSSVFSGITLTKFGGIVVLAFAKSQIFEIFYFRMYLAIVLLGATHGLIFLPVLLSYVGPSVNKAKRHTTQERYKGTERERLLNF

[1] = system: NPC1 mutants (W381E, L613E, Y628S, I685S, and Y1225E); experiment: Cross-linking of P-X to NPC1 binding-site mutants in intact HEK293S cells; format: cell-based, human; settings: 0.3 μM P-X
From the text: The I-Br binds to a hydrophobic cavity that is generated by the SSD, the MLD and the CTD in the center of NPC1 (Fig. 3d). Residues in the N-terminal loop and C-terminal helices of the MLD and the CTD, as well as TMs 3, 4, 5, and 13 contribute to the cavity that accommodates I-Br (Figs. 3d, 4a, b). The terminal sec-butyl moiety of I-Br inserts into the cavity and is contacted by residues W381, I609, L613, I685, F1087, I1220, and Y1225 (Fig. 4a, b). […] To validate our structural observation, we have generated five NPC1 mutants (W381E, L613E, Y628S, I685S, and Y1225E) located in the binding site and individually transfected the mutant cDNAs into HEK293S cells.
pNPC1 encoding wild-type human NPC1 (amino acids 1–1278) followed sequentially by three tandem copies of the Flag epitope tag ([…]) was constructed into pcDNA3.1. Expression is achieved with the cytomegalovirus (CMV) promoter. […]
For cross-linking of P-X to NPC1 and mutants in intact cells, the mammalian HEK-293S GnTI^- cells (ATCC, CRL-3022) overexpressing NPC1 and mutants were set up in 500 mL of freestyle medium with 2% FCS at a density of 2 × 10^6 cells per ml. […] An aliquot of each sample was subjected to 8% SDS/PAGE, and fluorescent-labeled proteins were visualized by in-gel fluorescence as described above. […]

human NPC1 = system: T2, human NPC1; settings: NPC1 reconstituted in lipid nanodiscs; cited from earlier work
T2 construct: Strep-tag; made in house; host or cells: HEK-293S GnTI- cells (baculovirus-mediated transduction)

[2] = system: NPC1-mediated cholesterol export; settings: cited from earlier work

Row | SMILES | inhibition of P-X cross-linking to NPC1 (NPC1) | cross-linking of P-X to NPC1 mutants in cells [1] | cross-linking of P-X to purified NPC1 (human NPC1) | cross-linking of P-X to NPC1 in cultured cells (NPC1; added at nanomolar concentration) | inhibition of cholesterol export from lysosomes [2]
1 | CC(=O)N1CCN(c2ccc(OCC3COC(Cn4ccnc4)(c4ccc(Cl)cc4Cl)O3)cc2)CC1 (stereo not drawn) [Ketoconazole, ketoconazole] | did not block |  |  |  | 
2 | C#CCOc1ccc(C(=O)c2ccc(C(=O)OC(C)C(CC)n3ncn(-c4ccc(N5CCN(c6ccc(OCC7COC(Cn8cncn8)(c8ccc(F)cc8F)O7)cc6)CC5)cc4)c3=O)cc2)cc1 (stereo not drawn) [P-X] |  | not efficiently cross-linked | cross-linked | can be cross-linked | 
3 | CCC(C)n1ncn(-c2ccc(N3CCN(c4ccc(OCC5COC(Cn6cncn6)(c6ccc(Cl)cc6Cl)O5)cc4)CC3)cc2)c1=O (stereo not drawn) [Itraconazole mixture, itraconazole] | inhibited |  |  |  | inhibit cholesterol export from lysosomes
